Measured values from patent publication US9260473B2, “Bivalent multifunctional ligands targeting Aβ oligomers as treatment for Alzheimer's disease” (Virginia Commonwealth University, priority 2010, dated 2016).

Assays:
[1] = BBB permeability in B6C3F1 mice, brain tissue analysed by HPLC; assay type: in vivo
Procedure: FIG. 10. Compound 14 can cross the blood brain barrier (BBB) of B6C3F1 mice. Compound 14 (10 mg/kg) was given to B6C3F1 female mice (n=3) by i.v. administration through tail-vein. Then the animals were sacrificed at indicated time intervals and the brain tissues were collected and analyzed by HPLC using C18 column.
An appropriate fluorescent probe must cross the BBB and selectively bind to Aβ plaques. […] Here, we further assessed the BBB permeability of 14 using female B6C3F1 mice combined with HPLC analysis. […] The results may indicate that 14 can rapidly cross the BBB and reach the brain tissue and is metabolized in a reasonable time window (˜3 hrs) that allows clinical operation. 14 appears to violate all of the empirical rules of BBB permeability with a molecule weight >1000 Da and being more lipophilic (log P>3). However, we also realize that there are exceptions and that compounds with molecular weight more than 1000 Da can efficiently cross the BBB and reach brain tissue.

AβOs = experiment: Western blot assay of AβOs formation in MC65 cells (6E10 antibody); assay type: cell-based, human; settings: 10 μM, 24 hrs after removal of TC
Description: Inhibition of AβOs production by designed BMAOIs. […] The whole cell assay is a composite of not only Aβ oligomerization inhibition but also permeability, stability and other factors will validate the accessibility and function of our BMAOIs. MC65 is a human neuroblastoma cell line that conditionally expresses C99, the C-terminus fragment of APP using tetracycline (TC) as transgene suppressor.^38 Upon removal of TC, these cells can produce intracellular Aβ aggregates including small AβOs. […] All BMAOIs were first evaluated at a single concentration of 10 μM. Candidate compounds with inhibitory activities at this concentration were further evaluated in a dose-dependent manner in the following assays. […]
Western blot assay. […] Pellet was lysed by sonication in 1× lysis buffer (62.5 mM Tris base, pH6.8, 2% SDS, 50 mM DTT, 10% glycerol, 0.1% bromphenol blue, and […] each chymostatin, leupeptin, aprotinin, pepstatin, and soybean trypsin inhibitor) and protein level was determined using Coomassie Protein Assay Reagent (Pierce, Rockford, Ill.). […]

[2] = target: bovine serum albumin (BSA) (Bos taurus, UniProt P02769); experiment: Fluorescence polarization binding to BSA; settings: read-out: binding affinity to BSA (Kd)
bovine serum albumin (BSA), sequence (P02769 25-607): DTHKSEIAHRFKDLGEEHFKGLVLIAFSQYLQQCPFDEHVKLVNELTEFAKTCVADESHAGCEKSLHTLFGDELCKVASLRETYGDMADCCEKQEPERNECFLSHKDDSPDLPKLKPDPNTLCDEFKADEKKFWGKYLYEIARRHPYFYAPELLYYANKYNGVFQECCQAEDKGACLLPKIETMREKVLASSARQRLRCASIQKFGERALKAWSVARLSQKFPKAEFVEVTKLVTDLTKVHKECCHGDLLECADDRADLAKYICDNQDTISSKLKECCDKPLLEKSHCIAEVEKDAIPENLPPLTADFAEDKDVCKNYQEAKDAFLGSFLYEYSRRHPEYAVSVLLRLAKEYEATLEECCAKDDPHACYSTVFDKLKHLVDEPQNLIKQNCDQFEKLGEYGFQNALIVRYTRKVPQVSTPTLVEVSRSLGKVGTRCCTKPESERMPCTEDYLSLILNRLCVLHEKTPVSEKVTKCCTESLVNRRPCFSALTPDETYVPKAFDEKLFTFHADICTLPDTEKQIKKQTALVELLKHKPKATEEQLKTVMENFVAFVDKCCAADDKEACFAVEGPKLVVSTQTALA
Procedure: FIG. 8A-C. BMAOI 14 binds to Aβ42 monomers, oligomers, and fibrils, but not BSA. A. The monomers, oligomers and fibrils of Aβ42 were prepared according to established protocols and confirmed by TEM; B. Compound 14 (1 μM) was incubated with different forms of Aβ42 at indicated concentrations for 3 hrs. Then, fluorescence polarization change of 14 was recorded and the binding affinity was calculated; C. Compound 14 was incubated with BSA as described in B and the binding affinity was calculated.
To determine the binding affinity of 14 to Aβ, we evaluated changes in fluorescence polarization values of this probe at different 14:Aβ ratios for monomeric, oligomeric, and fibrillary Aβ species, respectively. Aβ42 is chosen to evaluate the binding of probe as it is the major and most sticky amyloid peptide found in AD plaques.^1 The formation of different Aβ42 species was confirmed by transmission electron microscope (TEM) as shown in FIG. 8A. […] It appears that 14 binds to Aβ42 with micromolar affinity and slightly favors […] fibrils over monomers and oligomers.

NK cells = experiment: IL-2 augmented natural killer (NK) cell activity; assay type: cell-based, B6C3F1 mice; settings: 10 μM
Procedure: IL-2 augmented natural killer (NK) cell activity. […] Recombinant IL-2 (Chiron, Emeryville, Calif.) at a volume of 50 μL was added to each well so that the final concentration of IL-2 was 5000 fU/mL. The plates were cultured overnight in the presence of 1 or 14 (10 μM), and then assayed for NK cell activity using ^51Cr-labeled YAC-1 cells as the target cells. The ^51Cr-YAC-1 cells were added to each well of a 96-well plate to obtain E:T ratio of 50:1. […] Following 4 hrs incubation, the plates were centrifuged, and 0.1 mL of the supernatant was removed from each well and the radioactivity counted. The mean percentage of cytotoxicity was determined.

splenocytes = experiment: Anti-CD3 antibody mediated splenocyte proliferation; assay type: cell-based, B6C3F1 mice; settings: 10 μM
Procedure: Anti-CD3 antibody mediated splenocyte proliferation. […] The splenocytes (2×10^5/well) were cultured in the microtiter wells coated with anti-CD3 Ab (1 μg/mL; BD PharMingen) in the presence of 1 or 14 (10 μM) at 37° C. in 5% CO2. Prior to harvest on day 3, the cells were pulsed with ^3H-thymidine for 18-24 hours. The incorporation of ^3H-thymidine into the proliferating cells was used as the endpoint of the assay, and the data were expressed as CPM/2×10^5 cells.

extracellular AβOs = experiment: ML60 cell assay: ELISA for extracellular AβOs; assay type: cell-based, Chinese hamster; settings: ML60 cells, 10 μM, 24 hrs
Procedure: Next, another cell line, ML60, was employed to evaluate the inhibition of AβOs production.
ML60 cell assay. Sandwich enzyme-linked immunoassays (ELISAs) for extracellular AβOs in ML60 cells were performed. ML60 cells (90% confluent) in 96-well plates were treated with test compounds (10 μM) at 37° C., 5% CO2 for 24 hrs. ML60 cells were centrifuged for 5 min at 6000 g, and supernatant media was collected for AβOs measurement by ELISA. The capture antibody 21F12 (to Aβ residues 33-42) was used for capturing both monomeric and oligomeric Aβ42 species. The detecting antibody was biotinylated 21F12B, and the combination of 21F12 and biotinylated 21F12B allows the detection of only AβOs. The 21F12 mAbs were coated at 10 mg/mL into 96-well immunoassay plates (Costar) at room temperature overnight. The plates were then aspirated and blocked with 0.25% human serum albumin in PBS buffer for 1 hr at room temperature. The plates were rehydrated with wash buffer (0.05% Tween 20 in TBS) before use. The samples were added to the plates and incubated at room temperature for 1 hr. The plates were washed 3× with wash buffer between each step of the assay. […] Reaction product was quantified using plate reader by measuring the difference in absorbance at 450 nm and 650 nm.

## COc1cc(C=CC(=O)C(Cc2cn(CCCCCCNC(=O)CCNC(=O)CCNC(=O)COC3CCC4(C)C(=CCC5C4CCC4(C)C(C(C)CCCC(C)C)CCC54)C3)nn2)C(=O)C=Cc2ccc(O)c(OC)c2)ccc1O (centres unmarked) [BMAOI 14]
[1]; 10 mg/kg i.v.
  time window until disappearance from brain tissue: ~3 h
[1]; 10 mg/kg i.v. tail-vein, female B6C3F1 mice
  earliest time detected in brain tissue: 10 min
[1]; 10 mg/kg i.v., evident at 60 and 120 minutes
  duration of presence in brain tissue: more than two hours
AβOs
  inhibition of the formation of AβOs (Western blot): significantly inhibited
[2]
  Kd: ~120 µM
NK cells
  cytotoxic effects in NK cells: no cytotoxic effects
splenocytes
  cytotoxic effects in mouse spleen cells: minimal cytotoxic effects
Extracellular AβOs
  production of extracellular AβOs (ELISA): inhibited the production of extracellular AβOs
